Experimental data reported in patent US20160223562A1, “Method for Determining the Concentration of a Peptide” (JPT Peptide Technologies GmbH, priority 2010, published 2016).
Square brackets hold non-standard residues; d marks the D form. Peptide text beside a SMILES is read from it. Tyr(3-NO2) = N[C@@H](Cc1ccc(O)c([N+](=O)[O-])c1)C(=O)O

Key:
Trypsin [1] = biological target: T1, Trypsin (Sus scrofa, UniProt P00761); assay: Trypsin cleavage of C-terminal quantification tag -SA-nitroTyr-G from peptides, LC-MS with UV detection at 350 nm; type: biochemical; settings: after reduction and alkylation, trypsin enzyme/substrate 1:50 over night at RT
T1 construct: purchased Promega Corporation V511
T1 sequence (P00761 9-231): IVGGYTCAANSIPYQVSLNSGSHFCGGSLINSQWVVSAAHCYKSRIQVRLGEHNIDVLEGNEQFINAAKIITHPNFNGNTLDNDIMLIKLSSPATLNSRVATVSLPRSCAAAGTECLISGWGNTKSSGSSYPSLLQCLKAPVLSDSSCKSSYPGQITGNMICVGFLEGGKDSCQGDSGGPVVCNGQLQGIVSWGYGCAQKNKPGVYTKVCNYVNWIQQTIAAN
Description: 23 peptides carrying the C-terminal quantification-tag-SA-nitroTyr-G-OH (SEQ ID NO:2) were synthesized by Fmoc-based solid phase peptide synthesis and purified by HPLC. Each peptide was subjected to the following trypsin cleavage protocol:
Trypsin Activation: Trypsin (20 μg, sequencing grade modified trypsin, Promega Corporation, Madison, Wis., USA, catalogue no. V511, specific activity 16.965 u/mg) was dissolved in Trypsin resuspension buffer (200 μL, Promega, catalogue no. V542A, ingredient 50 mM acetic acid) and incubated for 15 min at 37° C.
Reduction and alkylation: The peptide (approx. 0.05 mg) was dissolved in 1 M urea and 100 mM fresh ammonium hydrogen carbonate (300 μL). TCEP (Tris(2-carboxyethyl) phosphine hydrochloride, 0.2 M, 7.5 μL, final concentration 5 mM) was added and the solution incubated at 37° C. for 1 h. After addition of iodoacetamide (0.5 M, 6.0 μL, final concentration 10 mM) the solution was incubated at RT in the dark for another 30 min. Digestion: The sample was digested with activated Trypsin solution (10 μL per well, 1.0 μg, resulting enzyme/substrate ratio 1:50) over night at RT. To stop the digestion, HCl (2 M, 8 μL final concentration 50 mM) and TFA (3.2 μL, final concentration 1%, pH<2) were added. Finally, the sample was analyzed by LC-MS at 350 nm.

Trypsin [2] = biological target: T1, Trypsin; assay: Trypsin cleavage of N-terminal quantification tag Ac-nitroTyr-SGK- from peptides, LC-MS with UV detection at 350 nm; type: biochemical; settings: for cleavage efficiency in words: trypsin; for Kusebauch 24 h, RT: Percent Cleavage of Tag [by UV350 - Peptide-Tag vs. Tag]: trypsin protocol of example 9, 24 h

| Compound | Percent Cleavage of Tag [by UV at 350 nm] (Trypsin [1]) | cleavage efficiency in words (Trypsin [2]) | Kusebauch 24 h, RT: Percent Cleavage of Tag [by UV350 - Peptide-Tag vs. Tag] (Trypsin [2]) |
| --- | --- | --- | --- |
| Ac-nitroTyr-SGKHTHYFIDLN-K-OH (Ac-[Tyr(3-NO2)]SGKHTHYFIDLNK-OH; SMILES CC[C@H](C)[C@H](NC(=O)[C@H](Cc1ccccc1)NC(=O)[C@H](Cc1ccc(O)cc1)NC(=O)[C@H](Cc1c[nH]cn1)NC(=O)[C@@H](NC(=O)[C@H](Cc1c[nH]cn1)NC(=O)[C@H](CCCCN)NC(=O)CNC(=O)[C@H](CO)NC(=O)[C@H](Cc1ccc(O)c([N+](=O)[O-])c1)NC(C)=O)[C@@H](C)O)C(=O)N[C@@H](CC(=O)O)C(=O)N[C@@H](CC(C)C)C(=O)N[C@@H](CC(N)=O)C(=O)N[C@@H](CCCCN)C(=O)O) [Peptide 7] | 100% | – | 100.0% |
| CC[C@H](C)[C@H](NC(=O)[C@H](Cc1ccccc1)NC(=O)[C@H](Cc1ccc(O)cc1)NC(=O)[C@H](Cc1c[nH]cn1)NC(=O)[C@@H](NC(=O)[C@H](CCC(=O)O)NC(=O)[C@H](CCCCN)NC(=O)CNC(=O)[C@H](CO)NC(=O)[C@H](Cc1ccc(O)c([N+](=O)[O-])c1)NC(C)=O)[C@@H](C)O)C(=O)N[C@@H](CC(=O)O)C(=O)N[C@@H](CC(C)C)C(=O)N[C@@H](CC(N)=O)C(=O)N[C@@H](CCCCN)C(=O)O [Peptide 4, Ac-nitroTyr-SGKETHYFIDLN-K-OH] (Ac-[Tyr(3-NO2)]SGKETHYFIDLNK-OH) | 100% | – | 100.0% |
| CC[C@H](C)[C@H](NC(=O)[C@H](Cc1ccccc1)NC(=O)[C@H](Cc1ccc(O)cc1)NC(=O)[C@H](Cc1c[nH]cn1)NC(=O)[C@@H](NC(=O)[C@H](CC(=O)O)NC(=O)[C@H](CCCCN)NC(=O)CNC(=O)[C@H](CO)NC(=O)[C@H](Cc1ccc(O)c([N+](=O)[O-])c1)NC(C)=O)[C@@H](C)O)C(=O)N[C@@H](CC(=O)O)C(=O)N[C@@H](CC(C)C)C(=O)N[C@@H](CC(N)=O)C(=O)N[C@@H](CCCCN)C(=O)O [Peptide 3, Ac-nitroTyr-SGKDTHYFIDLN-K-OH] (Ac-[Tyr(3-NO2)]SGKDTHYFIDLNK-OH) | 100% | not efficiently cleaved | 60.2% |
| CC[C@H](C)[C@H](NC(=O)[C@H](Cc1ccccc1)NC(=O)[C@H](Cc1ccc(O)cc1)NC(=O)[C@H](Cc1c[nH]cn1)NC(=O)[C@@H](NC(=O)[C@H](Cc1ccccc1)NC(=O)[C@H](CCCCN)NC(=O)CNC(=O)[C@H](CO)NC(=O)[C@H](Cc1ccc(O)c([N+](=O)[O-])c1)NC(C)=O)[C@@H](C)O)C(=O)N[C@@H](CC(=O)O)C(=O)N[C@@H](CC(C)C)C(=O)N[C@@H](CC(N)=O)C(=O)N[C@@H](CCCCN)C(=O)O [Peptide 5, Ac-nitroTyr-SGKFTHYFIDLN-K-OH] (Ac-[Tyr(3-NO2)]SGKFTHYFIDLNK-OH) | 100% | – | 99.0% |

Other lines, results leading:

| Percent Cleavage of Tag [by UV at 350 nm] (Trypsin [1]) | cleavage efficiency in words (Trypsin [2]) | Kusebauch 24 h, RT: Percent Cleavage of Tag [by UV350 - Peptide-Tag vs. Tag] (Trypsin [2]) | Compound |
| --- | --- | --- | --- |
| 100% | not efficiently cleaved | 59.2% | CC(=O)N[C@@H](Cc1ccc(O)c([N+](=O)[O-])c1)C(=O)N[C@@H](CO)C(=O)NCC(=O)N[C@@H](CCCCN)C(=O)N[C@@H](CC(=O)O)C(=O)N[C@H](C(=O)N[C@@H](C)C(=O)N[C@@H](CC(C)C)C(=O)N[C@@H](CO)C(=O)N[C@@H](CC(C)C)C(=O)N[C@@H](CC(=O)O)C(=O)N[C@@H](CC(=O)O)C(=O)N[C@H](C(=O)N[C@@H](CCCCN)C(=O)O)C(C)C)C(C)C [Peptide 23, Ac-nitroTyr-SGKDVALSLDDV-K-OH] (Ac-[Tyr(3-NO2)]SGKDVALSLDDVK-OH) |
| 100% | – | 100.0% | CC[C@H](C)[C@H](NC(=O)[C@H](Cc1ccccc1)NC(=O)[C@H](Cc1ccc(O)cc1)NC(=O)[C@H](Cc1c[nH]cn1)NC(=O)[C@@H](NC(=O)[C@@H](NC(=O)[C@H](CCCCN)NC(=O)CNC(=O)[C@H](CO)NC(=O)[C@H](Cc1ccc(O)c([N+](=O)[O-])c1)NC(C)=O)C(C)C)[C@@H](C)O)C(=O)N[C@@H](CC(=O)O)C(=O)N[C@@H](CC(C)C)C(=O)N[C@@H](CC(N)=O)C(=O)N[C@@H](CCCCN)C(=O)O [Peptide 18, Ac-nitroTyr-SGKVTHYFIDLN-K-OH] (Ac-[Tyr(3-NO2)]SGKVTHYFIDLNK-OH) |
| 100% | – | 100.0% | CC[C@H](C)[C@H](NC(=O)[C@H](Cc1ccccc1)NC(=O)[C@H](Cc1ccc(O)cc1)NC(=O)[C@H](Cc1c[nH]cn1)NC(=O)[C@@H](NC(=O)[C@H](CCSC)NC(=O)[C@H](CCCCN)NC(=O)CNC(=O)[C@H](CO)NC(=O)[C@H](Cc1ccc(O)c([N+](=O)[O-])c1)NC(C)=O)[C@@H](C)O)C(=O)N[C@@H](CC(=O)O)C(=O)N[C@@H](CC(C)C)C(=O)N[C@@H](CC(N)=O)C(=O)N[C@@H](CCCCN)C(=O)O [Peptide 11, Ac-nitroTyr-SGKMTHYFIDLN-K-OH] (Ac-[Tyr(3-NO2)]SGKMTHYFIDLNK-OH) |
| 100% | – | 100.0% | CC[C@H](C)[C@H](NC(=O)[C@H](Cc1ccccc1)NC(=O)[C@H](Cc1ccc(O)cc1)NC(=O)[C@H](Cc1c[nH]cn1)NC(=O)[C@@H](NC(=O)[C@H](CC(C)C)NC(=O)[C@H](CCCCN)NC(=O)CNC(=O)[C@H](CO)NC(=O)[C@H](Cc1ccc(O)c([N+](=O)[O-])c1)NC(C)=O)[C@@H](C)O)C(=O)N[C@@H](CC(=O)O)C(=O)N[C@@H](CC(C)C)C(=O)N[C@@H](CC(N)=O)C(=O)N[C@@H](CCCCN)C(=O)O [Peptide 10, Ac-nitroTyr-SGKLTHYFIDLN-K-OH] (Ac-[Tyr(3-NO2)]SGKLTHYFIDLNK-OH) |
| 100% | – | 100.0% | CC[C@H](C)[C@H](NC(=O)[C@H](Cc1ccccc1)NC(=O)[C@H](Cc1ccc(O)cc1)NC(=O)[C@H](Cc1c[nH]cn1)NC(=O)[C@@H](NC(=O)[C@@H](NC(=O)[C@H](CCCCN)NC(=O)CNC(=O)[C@H](CO)NC(=O)[C@H](Cc1ccc(O)c([N+](=O)[O-])c1)NC(C)=O)[C@@H](C)O)[C@@H](C)O)C(=O)N[C@@H](CC(=O)O)C(=O)N[C@@H](CC(C)C)C(=O)N[C@@H](CC(N)=O)C(=O)N[C@@H](CCCCN)C(=O)O [Peptide 17, Ac-nitroTyr-SGKTTHYFIDLN-K-OH] (Ac-[Tyr(3-NO2)]SGKTTHYFIDLNK-OH) |
